# Measured values as given in patent US20190374468A1, “Liposomal Formulations for Allosteric AKT Inhibitors” (Merck Sharp & Dohme Corp., priority 2013, published 2019).
# Experiments:
# [1] = Aqueous solubility of Compound B; format: physicochemical
# [2] = Visual evaluation of Compound B in the presence of sulfate salts; format: physicochemical; conditions: 1 mg/mL in pH 3.0 citrate buffer with 0.1-1.0 M (NH4)2SO4, 20° C.
# Method: The behavior of Compound B in the presence of sulfate salts was further evaluated visually. Vials containing 1 mg/mL Compound B in pH 3.0 citrate buffer with 0.1 M, 0.25 M, 0.5 M, and 1.0 M, respectively, of (NH4)2SO4 were visually observed at 20° C. […] Solutions became increasingly more viscous with a white/opaque appearance with increasing amounts of ammonium sulfate.
smiles,measurement,setting,value
"Cl.NC1(c2ccc(-c3nc4ccn5c(=O)[nH]nc5c4cc3-c3ccccc3)cc2)CCC1 [Compound B, 8-[4-(1-aminocyclobutyl)phenyl]-9-phenyl[1,2,4]triazolo[3,4-f]-1,6-naphthyridin-3-ol]",solubility,"[1]; 0.1 M carbonate buffer, aqueous buffer, pH 8.6, 0.1M Carbonate",0.7 µg/mL
same,solubility,"[1]; 0.1 M citrate buffer, aqueous buffer, pH 2.8, 0.1M Citrate",10600 µg/mL
same,solubility,"[1]; 0.1 M citrate buffer, aqueous buffer, pH 3.9, 0.1M Citrate",170 µg/mL
same,solubility,"[1]; 0.1 M citrate buffer, aqueous buffer, pH 5.0, 0.1M Citrate",59 µg/mL
same,solubility,"[1]; 0.1 M phosphate buffer, aqueous buffer, pH 5.6, 0.1M Phosphate",140 µg/mL
same,solubility,"[1]; 0.1 M phosphate buffer, aqueous buffer, pH 6.9, 0.1M Phosphate",36 µg/mL
same,solubility,"[1]; simulated gastric fluid, pH 2.1, 0.01N HCl",4230 µg/mL
same,solubility,"[1]; un-buffered aqueous medium, water, pH 4.1, Un-buffered",7460 µg/mL
same,time to flocculation after addition of ammonium sulfate,[2],< 30 min
